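The compound was tested at five concentrations on cells cultured in 96-well plates, with a 48-hour exposure period. The concentration for 50% growth inhibition is given as GI50. TGI: concentration producing complete growth inhibition.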
Key:
Assay in all cases: NCI tumour cell line growth inhibition, 48 h
786-0 renal = system: 786-0 renal
A498 renal = system: A498 renal
A549 NSCLC = system: A549 NSCLC
ACHN renal = system: ACHN renal
BT-549 breast = system: BT-549 breast
CAKI-1 renal = system: CAKI-1 renal
CCRF-CEM leukemia = system: CCRF-CEM leukemia
COLO 205 colon = system: COLO 205 colon
DU-145 prostate = system: DU-145 prostate
HCC-2998 colon = system: HCC-2998 colon
HCT-116 colon = system: HCT-116 colon
HCT-15 colon = system: HCT-15 colon
HL-60(TB) leukemia = system: HL-60(TB) leukemia
HOP-62 NSCLC = system: HOP-62 NSCLC
HOP-92 NSCLC = system: HOP-92 NSCLC
HS 578T breast = system: HS 578T breast
HT29 colon = system: HT29 colon
IGROV1 ovarian = system: IGROV1 ovarian
K-562 leukemia = system: K-562 leukemia
KM12 colon = system: KM12 colon
LOX IMVI melanoma = system: LOX IMVI melanoma
M14 melanoma = system: M14 melanoma
MALME-3M melanoma = system: MALME-3M melanoma
MCF7 breast = system: MCF7 breast
MDA-MB-231 breast = system: MDA-MB-231 breast
MDA-MB-435 = system: MDA-MB-435
MOLT-4 leukemia = system: MOLT-4 leukemia
NCI-H23 lung = system: NCI-H23 lung
NCI-H460 lung = system: NCI-H460 lung
NCI-H522 lung = system: NCI-H522 lung
NCI/ADR-RES ovarian = system: NCI/ADR-RES ovarian
OVCAR-3 ovarian = system: OVCAR-3 ovarian
OVCAR-4 ovarian = system: OVCAR-4 ovarian
OVCAR-5 ovarian = system: OVCAR-5 ovarian
OVCAR-8 ovarian = system: OVCAR-8 ovarian
PC-3 prostate = system: PC-3 prostate
RPMI-8226 leukemia = system: RPMI-8226 leukemia
RXF 393 renal = system: RXF 393 renal
SF-268 CNS = system: SF-268 CNS
SF-295 CNS = system: SF-295 CNS
SF-539 CNS = system: SF-539 CNS
SK-MEL-2 melanoma = system: SK-MEL-2 melanoma
SK-MEL-28 melanoma = system: SK-MEL-28 melanoma
SK-MEL-5 melanoma = system: SK-MEL-5 melanoma
SK-OV-3 ovarian = system: SK-OV-3 ovarian
SN12C renal = system: SN12C renal
SNB-19 CNS = system: SNB-19 CNS
SNB-75 CNS = system: SNB-75 CNS
SR leukemia = system: SR leukemia
SW-620 colon = system: SW-620 colon
T-47D breast = system: T-47D breast
TK-10 renal = system: TK-10 renal
U251 CNS = system: U251 CNS
UACC-257 melanoma = system: UACC-257 melanoma
UACC-62 melanoma = system: UACC-62 melanoma
UO-31 renal = system: UO-31 renal

## Cc1cccc(-n2cnc3cc(C(=O)N4CCCCC4)ccc32)c1
786-0 renal
  GI50: > 100 µM
  TGI: > 100 µM
A498 renal
  GI50: 51.3 µM
  TGI: > 100 µM
A549 NSCLC
  GI50: 85.5 µM
  TGI: > 100 µM
ACHN renal
  GI50: > 100 µM
  TGI: > 100 µM
BT-549 breast
  GI50: 97 µM
  TGI: > 100 µM
CAKI-1 renal
  GI50: > 100 µM
  TGI: > 100 µM
CCRF-CEM leukemia
  GI50: > 100 µM
  TGI: > 100 µM
COLO 205 colon
  GI50: 49.9 µM
  TGI: > 100 µM
DU-145 prostate
  GI50: > 100 µM
  TGI: > 100 µM
HCC-2998 colon
  GI50: > 100 µM
  TGI: > 100 µM
HCT-116 colon
  GI50: > 100 µM
  TGI: > 100 µM
HCT-15 colon
  GI50: 56.6 µM
  TGI: > 100 µM
HL-60(TB) leukemia
  GI50: > 100 µM
  TGI: > 100 µM
HOP-62 NSCLC
  GI50: > 100 µM
  TGI: > 100 µM
HOP-92 NSCLC
  GI50: 41.4 µM
  TGI: > 100 µM
HS 578T breast
  GI50: 72.7 µM
  TGI: > 100 µM
HT29 colon
  GI50: > 100 µM
  TGI: > 100 µM
IGROV1 ovarian
  GI50: > 100 µM
  TGI: > 100 µM
K-562 leukemia
  GI50: 59.9 µM
  TGI: > 100 µM
KM12 colon
  GI50: > 100 µM
  TGI: > 100 µM
LOX IMVI melanoma
  GI50: > 100 µM
  TGI: > 100 µM
M14 melanoma
  GI50: > 100 µM
  TGI: > 100 µM
MALME-3M melanoma
  GI50: > 100 µM
  TGI: > 100 µM
MCF7 breast
  GI50: 48.4 µM
  TGI: > 100 µM
MDA-MB-231 breast
  GI50: 92.2 µM
  TGI: > 100 µM
MDA-MB-435
  GI50: > 100 µM
  TGI: > 100 µM
MOLT-4 leukemia
  GI50: > 100 µM
  TGI: > 100 µM
NCI-H23 lung
  GI50: > 100 µM
  TGI: > 100 µM
NCI-H460 lung
  GI50: > 100 µM
  TGI: > 100 µM
NCI-H522 lung
  GI50: > 100 µM
  TGI: > 100 µM
NCI/ADR-RES ovarian
  GI50: 37.9 µM
  TGI: > 100 µM
OVCAR-3 ovarian
  GI50: 54.9 µM
  TGI: > 100 µM
OVCAR-4 ovarian
  GI50: 46 µM
  TGI: > 100 µM
OVCAR-5 ovarian
  GI50: > 100 µM
  TGI: > 100 µM
OVCAR-8 ovarian
  GI50: 91.9 µM
  TGI: > 100 µM
PC-3 prostate
  GI50: > 100 µM
  TGI: > 100 µM
RPMI-8226 leukemia
  GI50: > 100 µM
  TGI: > 100 µM
RXF 393 renal
  GI50: 23.9 µM
  TGI: > 100 µM
SF-268 CNS
  GI50: > 100 µM
  TGI: > 100 µM
SF-295 CNS
  GI50: 65.1 µM
  TGI: > 100 µM
SF-539 CNS
  GI50: 85.5 µM
  TGI: > 100 µM
SK-MEL-2 melanoma
  GI50: > 100 µM
  TGI: > 100 µM
SK-MEL-28 melanoma
  GI50: 59.1 µM
  TGI: > 100 µM
SK-MEL-5 melanoma
  GI50: 20 µM
  TGI: 53.1 µM
SK-OV-3 ovarian
  GI50: > 100 µM
  TGI: > 100 µM
SN12C renal
  GI50: > 100 µM
  TGI: > 100 µM
SNB-19 CNS
  GI50: 48.8 µM
  TGI: > 100 µM
SNB-75 CNS
  GI50: 30 µM
  TGI: > 100 µM
SR leukemia
  GI50: > 100 µM
  TGI: > 100 µM
SW-620 colon
  GI50: > 100 µM
  TGI: > 100 µM
T-47D breast
  GI50: 28 µM
  TGI: 93.1 µM
TK-10 renal
  GI50: > 100 µM
  TGI: > 100 µM
U251 CNS
  GI50: 62.6 µM
  TGI: > 100 µM
UACC-257 melanoma
  GI50: > 100 µM
  TGI: > 100 µM
UACC-62 melanoma
  GI50: 48 µM
  TGI: > 100 µM
UO-31 renal
  GI50: 29.8 µM
  TGI: > 100 µM

From PubChem BioAssay (NCI)
